Measurements: US8658668B2, “PI3 kinase/mTOR dual inhibitor” (Eli Lilly and Company, priority 2011, dated 2014)

Key:
[1] = tested on: LXFA 983 human tumor xenograft cells; assay: Oncotest tumor clonogenic assay, LXFA 983; format: cell-based; conditions: colony formation, NSCLC LXFA 983, adeno carcinoma, pd, read-out: Absolute IC50
[2] = tested on: HNXF 536 human tumor xenograft cells; assay: Oncotest tumor clonogenic assay, HNXF 536; format: cell-based; conditions: colony formation, Head and Neck HNXF 536, squamous epithelium carcinoma, wd, read-out: Absolute IC50
[3] = tested on: LXFA 1584 human tumor xenograft cells; assay: Oncotest tumor clonogenic assay, LXFA 1584; format: cell-based; conditions: colony formation, NSCLC LXFA 1584, adeno carcinoma, pd, read-out: Absolute IC50
pT308 AKT = assay: In vivo target inhibition in U87MG tumors, pT308 AKT; conditions: Mus musculus, U-87 MG; for inhibition at 0.5 mg/kg: 0.5 mg/kg oral; for inhibition at 1.5 mg/kg: 1.5 mg/kg oral; for inhibition at 3 mg/kg: 3 mg/kg oral; for inhibition at 6 mg/kg: 6 mg/kg oral; for inhibition at 10 mg/kg: 10 mg/kg oral; for inhibition at 12 mg/kg: 12 mg/kg oral
Method: Implant U87MG human glioblastoma cells (5×10^6) subcutaneously into the flank of athymic nude mice in 0.2 mL of matrigel. Ten days post-implantation, dose mice orally according to a time course, single dose/single time point, or dose response protocol for the determination of TMED50 (threshold minimum effective dose). Flash freeze tumors at harvest and collect blood for the determination of parent compound plasma exposure and the calculation of TMEC50 (threshold minimum effective concentration) in the case of dose response studies. Homogenize tumors in 500 μL of XY Lysis Buffer (10 μg/mL Leupeptin, 10 μg/mL Trypsin-Chymotrypsin Inhibitor, 10 μg/mL Tosyl phenyl-alanyl chloromethyl ketone, 10 μg/mL Aprotinin, 60 mM Beta-Glycerol Phosphate, 1% Triton X100, 25 mM Tris pH 7.5, 2.5 mM Pyrophosphate, 150 mM NaCl, 2 mM p-tosyl-L-arginine methyl ester, 15 mM para-nitrophenyl phosphate, 5 mM benzamidine, 1 mM sodium vanadate, 10 mM sodium fluoride, 50 μg/mL phenyl-methane sulfonyl fluoride, 1 mM 1,4-dithiothreitol (DTT), 15 mM EDTA pH 8.0, 5 mM EGTA pH 8.0, 1 μM Microcystin, 1 μM Okadaic Acid, and 1 Roche Complete protease inhibitor mini-tablet per 10 mL) using RNase Free Pellet Pestle (Kimble-Kontes). Aliquot lysates and either assay immediately or store at −80° C. for later testing. Use the multiplex format of Meso Scale Discovery (Gaithersburg, Md.) ELISA technology and measure in vivo target inhibition of PI3K and mTOR to assess effects on phosphorylation of the threonine 308 site of AKT, a downstream effector of PI3K; phosphorylation on the threonine 389 site of p70 S6K and on the serine 240/244 site of S6RP, downstream effectors of mTORC1; phosphorylation of the serine 473 site of AKT, a downstream effector of mTORC2. Add 20 μg of lysate to carbon electrode containing 96-well plates pre-spotted with the appropriate capture antibodies. Probe the protein of interest using a ruthenium labeled detection antibody. Pass current over the electrode in the presence of read buffer containing the co-reactant TPA, and quantitate and record the light generated by electro-chemiluminescence with the MSD Sector 6000 instrument. Calculate percent inhibitions relative to the vehicle control group and perform ANOVA analysis using the JMP software package for the determination of statistical significance.

[4] = tested on: PRXF DU145 human tumor xenograft cells; assay: Oncotest tumor clonogenic assay, PRXF DU145; format: cell-based; conditions: DU-145, colony formation, Prostate PRXF DU145, adeno carcinoma, ud, read-out: Absolute IC50
PI3Kb = PI3Kb (Homo sapiens, UniProt P42338); assay: PI3K beta Scintillation Proximity Assay; format: biochemical; conditions: 40 μM ATP; n=2; read-out: absolute IC50
PI3Kb, sequence (P42338 whole entry): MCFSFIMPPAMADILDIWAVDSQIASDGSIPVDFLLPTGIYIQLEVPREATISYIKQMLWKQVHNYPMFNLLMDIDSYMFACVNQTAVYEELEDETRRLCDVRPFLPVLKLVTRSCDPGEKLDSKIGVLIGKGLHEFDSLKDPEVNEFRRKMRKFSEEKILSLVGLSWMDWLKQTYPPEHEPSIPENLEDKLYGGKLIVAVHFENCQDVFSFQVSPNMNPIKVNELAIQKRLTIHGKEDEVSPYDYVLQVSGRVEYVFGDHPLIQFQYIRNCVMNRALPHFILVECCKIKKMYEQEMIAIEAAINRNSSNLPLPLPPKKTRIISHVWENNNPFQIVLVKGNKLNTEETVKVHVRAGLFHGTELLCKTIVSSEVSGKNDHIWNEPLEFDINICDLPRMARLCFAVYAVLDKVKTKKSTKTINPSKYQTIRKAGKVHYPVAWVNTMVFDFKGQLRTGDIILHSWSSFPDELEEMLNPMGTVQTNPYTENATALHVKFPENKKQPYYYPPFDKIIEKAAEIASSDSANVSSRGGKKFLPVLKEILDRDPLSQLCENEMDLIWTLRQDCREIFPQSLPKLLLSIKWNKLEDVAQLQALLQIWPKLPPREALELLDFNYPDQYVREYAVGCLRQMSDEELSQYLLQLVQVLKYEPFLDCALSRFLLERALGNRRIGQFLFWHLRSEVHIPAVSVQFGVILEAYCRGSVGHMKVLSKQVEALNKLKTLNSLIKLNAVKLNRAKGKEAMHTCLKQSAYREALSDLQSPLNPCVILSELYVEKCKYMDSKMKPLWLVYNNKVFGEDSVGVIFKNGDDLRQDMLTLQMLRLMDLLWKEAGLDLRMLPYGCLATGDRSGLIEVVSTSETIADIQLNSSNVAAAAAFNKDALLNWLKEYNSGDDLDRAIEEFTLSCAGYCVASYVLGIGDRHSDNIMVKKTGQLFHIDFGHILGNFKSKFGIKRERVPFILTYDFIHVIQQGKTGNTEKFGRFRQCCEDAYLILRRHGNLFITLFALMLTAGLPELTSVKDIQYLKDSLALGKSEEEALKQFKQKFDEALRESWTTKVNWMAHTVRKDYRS
PI3Kb, sequence (P27986 whole entry partner): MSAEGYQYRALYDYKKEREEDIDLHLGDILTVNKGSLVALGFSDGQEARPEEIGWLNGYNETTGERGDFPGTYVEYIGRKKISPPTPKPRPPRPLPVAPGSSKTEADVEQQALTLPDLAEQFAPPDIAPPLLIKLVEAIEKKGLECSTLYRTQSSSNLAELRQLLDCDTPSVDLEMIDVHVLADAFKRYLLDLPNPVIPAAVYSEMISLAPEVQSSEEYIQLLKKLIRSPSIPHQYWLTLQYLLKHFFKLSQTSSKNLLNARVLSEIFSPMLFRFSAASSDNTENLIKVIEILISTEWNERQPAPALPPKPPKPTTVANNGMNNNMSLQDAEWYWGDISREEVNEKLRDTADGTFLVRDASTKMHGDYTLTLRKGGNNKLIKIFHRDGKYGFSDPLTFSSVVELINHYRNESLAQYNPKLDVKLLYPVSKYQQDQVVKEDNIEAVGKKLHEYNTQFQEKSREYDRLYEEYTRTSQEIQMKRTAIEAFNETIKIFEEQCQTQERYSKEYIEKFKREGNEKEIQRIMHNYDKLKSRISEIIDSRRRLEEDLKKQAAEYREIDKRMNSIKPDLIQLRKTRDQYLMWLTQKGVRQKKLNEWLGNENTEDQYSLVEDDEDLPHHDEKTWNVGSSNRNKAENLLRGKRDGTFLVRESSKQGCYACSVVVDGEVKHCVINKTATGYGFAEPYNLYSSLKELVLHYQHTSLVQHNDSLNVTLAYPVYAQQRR
Method: Use the PI3K beta Scintillation Proximity Assay (PI3K beta SPA) to determine the IC50 value against PI3Kb for a compound. This assay assesses the activity PI3K beta in the presence of compound inhibitors by measuring incorporation of γ-P33-ATP into phosphatidylinositol (4,5)bisphosphate (PIP2). Perform the kinase reactions in 40 μL reaction volumes in 96-well half-area flat bottom white with clear bottom polystyrene plates. Add PI3K beta to start the reaction. Final reaction conditions are 43.75 mM 2,2-bis(hydroxymethyl)-2,2′,2″-nitrilotriethanol (Bis-Tris) pH 7.0, 87.5 mM sodium chloride (NaCl), 1.76 mM polyethylene glycol octylphenyl ether (Triton™ X-100), 40 μM adenosine triphosphate (ATP), 1.0 mM magnesium chloride (MgCl2) and 1 μCi per well γ-P33-adenosine triphosphate (γ-P33-ATP), 6.0 nM PI3K beta human recombinant enzyme, 0.2 mM palmitoyl-oleoyl phosphatidylserine (POPS), 0.04 mM phosphatidylinositol (4,5)bisphosphate (PIP2), 4% DMSO and serial dilutions of compound (diluted 1:3 from 20,000 to 1 nM). […] Centrifuge plates for 30 min at 1000 revolutions per minute (RPM) and count radioactivity with a Wallac Microbeta Trilux normalized for P33. Derive the IC50 value for the compound by using percent inhibition data calculated using the reaction data relative to on-plate controls (active enzyme versus 62.5 millimolar EDTA-inhibited enzyme controls). […]

[5] = tested on: MAXF 1384 human tumor xenograft cells; assay: Oncotest tumor clonogenic assay, MAXF 1384; format: cell-based; conditions: colony formation, Mammary MAXF 1384, adeno carcinoma, pd, read-out: Absolute IC50

`CO[C@@H](C)Cn1c(=O)n(C)c2cnc3ccc(-c4cncc(C(C)(C)O)c4)cc3c21` [Example 1, 8-[5-(1-Hydroxy-1-methylethyl)pyridin-3-yl]-1-[(2S)-2-methoxypropyl]-3-methyl-1,3-dihydro-2H-imidazo[4,5-c]quinolin-2-one] was tested, and the IC50 [1] was 103 nM, the IC50 [2] was 55 nM and the IC50 [3] was 85 nM. For the same molecule, the inhibition at 0.5 mg/kg (pT308 AKT; 0.5 hr post dose) was 23%, the inhibition at 0.5 mg/kg (pT308 AKT; 4 hr post dose) was 1% and the inhibition at 1.5 mg/kg (pT308 AKT; 0.5 hr post dose) was 28%. It also gave an inhibition at 1.5 mg/kg (pT308 AKT; 4 hr post dose) of -8%, an inhibition at 3 mg/kg (pT308 AKT; 0.25 hr post dose) of 28% and an inhibition at 3 mg/kg (pT308 AKT; 0.5 hr post dose) of 43%. It also gave an inhibition at 3 mg/kg (pT308 AKT; 1 hr post dose) of 7%, an inhibition at 3 mg/kg (pT308 AKT; 3 hr post dose) of 7% and an inhibition at 3 mg/kg (pT308 AKT; 4 hr post dose) of -2%. For the same molecule, the inhibition at 6 mg/kg (pT308 AKT; 0.25 hr post dose) was 47%, the inhibition at 6 mg/kg (pT308 AKT; 0.5 hr post dose) was 61% and the inhibition at 6 mg/kg (pT308 AKT; 1 hr post dose) was 41%. For the same molecule, the inhibition at 6 mg/kg (pT308 AKT; 2 hr post dose) was 32%, the inhibition at 6 mg/kg (pT308 AKT; 4 hr post dose) was 1% and the inhibition at 6 mg/kg (pT308 AKT; 6 hr post dose) was -4%. For the same molecule, the inhibition at 6 mg/kg (pT308 AKT; 12 hr post dose) was -16%, the inhibition at 10 mg/kg (pT308 AKT; 0.5 hr post dose) was 88% and the inhibition at 10 mg/kg (pT308 AKT; 1 hr post dose) was 71%. For the same molecule, the inhibition at 10 mg/kg (pT308 AKT; 2 hr post dose) was 53%, the inhibition at 10 mg/kg (pT308 AKT; 4 hr post dose) was 44% and the inhibition at 10 mg/kg (pT308 AKT; 8 hr post dose) was 13%. The inhibition at 12 mg/kg (pT308 AKT; 0.5 hr post dose) was 79%, the inhibition at 12 mg/kg (pT308 AKT; 4 hr post dose) was 43% and the IC50 [4] was 269 nM. The IC50 (PI3Kb) was 77.6 nM and the IC50 [5] was 243 nM.
